Read-outs that look alike come from different tables or passages of the source. Where a SMILES comes first, the peptide text is derived from it.
How the values were obtained:
[1] = test system: Tryptase, from human lung; assay: Enzymatic assay, tryptase; conditions: at 100 μM
[2] = biological target: Thrombin, from Human Plasma (Homo sapiens, UniProt P00734); assay: Enzymatic assay, thrombin
[3] = biological target: Chymotrypsin, from human pancreas (Homo sapiens, UniProt P17538); assay: Enzymatic assay, chymotrypsin; conditions: at 100 μM
[4] = biological target: T1, CathepsinG, from human neutrophils (Homo sapiens, UniProt P08311); assay: Enzymatic assay, cathepsin G
T1 sequence (P08311 21-244): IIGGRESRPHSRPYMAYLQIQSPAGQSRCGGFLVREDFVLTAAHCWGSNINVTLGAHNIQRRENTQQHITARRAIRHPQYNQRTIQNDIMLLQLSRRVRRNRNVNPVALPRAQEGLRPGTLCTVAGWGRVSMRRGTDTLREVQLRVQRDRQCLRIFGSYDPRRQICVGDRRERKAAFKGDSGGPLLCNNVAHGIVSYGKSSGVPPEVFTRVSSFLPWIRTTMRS

HELA cells (Acc57) = assay: Cytotoxicity assay (MTT reduction), HELA cells; format: cell-based; conditions: Hela cells
Outline: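 HeLa cells were grown for 24 h, then exposed to peptides at 12.5, 25 and 50 μM in triplicate for 48 h at 37 °C. MTT reduction was read at 595 nm and growth % calculated relative to time-zero wells. LC50 interpolated by linear trend at −50% growth, GI50 at 50%.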

[5] = test system: human red blood cells (hRBC); assay: Hemolysis
Chymase, from human skin = biological target: T2, Chymase, from human skin (Homo sapiens, UniProt P23946); assay: Enzymatic assay, chymase
T2 sequence (P23946 22-247): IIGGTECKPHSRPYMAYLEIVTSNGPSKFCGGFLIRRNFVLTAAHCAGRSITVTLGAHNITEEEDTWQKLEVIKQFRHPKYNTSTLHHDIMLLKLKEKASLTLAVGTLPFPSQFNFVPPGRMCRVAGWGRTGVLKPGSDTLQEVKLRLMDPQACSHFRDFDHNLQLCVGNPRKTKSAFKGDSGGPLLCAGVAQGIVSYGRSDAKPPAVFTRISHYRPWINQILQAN

[6] = biological target: Trypsin, from human pancreas (Homo sapiens, UniProt P07477); assay: Enzymatic assay, trypsin; conditions: at 100 μM
[7] = biological target: T3, Elastase from human neutrophils (Homo sapiens, UniProt P08246); assay: Enzymatic assay, elastase
T3 sequence (P08246 30-267): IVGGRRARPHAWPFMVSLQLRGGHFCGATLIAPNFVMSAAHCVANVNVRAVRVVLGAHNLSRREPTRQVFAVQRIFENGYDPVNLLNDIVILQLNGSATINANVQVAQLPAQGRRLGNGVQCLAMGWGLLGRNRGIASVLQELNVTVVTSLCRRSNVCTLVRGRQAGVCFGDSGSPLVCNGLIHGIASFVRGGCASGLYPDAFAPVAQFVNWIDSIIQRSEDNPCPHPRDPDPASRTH

[8] = biological target: Coagulation Factor Xa, from uman plasma (Homo sapiens, UniProt P00742); assay: Enzymatic assay, coagulation factor Xa
[9] = biological target: Urokinase from human urine (Homo sapiens, UniProt P00749); assay: Enzymatic assay, urokinase

Sequence of Coagulation Factor Xa, from uman plasma (P00742 235-488 limits assumed): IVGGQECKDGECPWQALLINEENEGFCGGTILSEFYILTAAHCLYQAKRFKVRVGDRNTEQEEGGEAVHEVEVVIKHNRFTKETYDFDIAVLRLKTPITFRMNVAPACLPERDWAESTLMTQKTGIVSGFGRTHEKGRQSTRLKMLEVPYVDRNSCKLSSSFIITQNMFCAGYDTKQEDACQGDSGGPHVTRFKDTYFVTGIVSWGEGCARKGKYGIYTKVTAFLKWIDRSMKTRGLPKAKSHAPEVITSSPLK
Sequence of Coagulation Factor Xa, from uman plasma (P00742 41-179 limits assumed): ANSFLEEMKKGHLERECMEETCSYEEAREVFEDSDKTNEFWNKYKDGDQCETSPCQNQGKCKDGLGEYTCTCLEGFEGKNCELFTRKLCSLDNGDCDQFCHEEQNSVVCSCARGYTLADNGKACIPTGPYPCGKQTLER
Sequence of Chymotrypsin, from human pancreas (P17538 19-263): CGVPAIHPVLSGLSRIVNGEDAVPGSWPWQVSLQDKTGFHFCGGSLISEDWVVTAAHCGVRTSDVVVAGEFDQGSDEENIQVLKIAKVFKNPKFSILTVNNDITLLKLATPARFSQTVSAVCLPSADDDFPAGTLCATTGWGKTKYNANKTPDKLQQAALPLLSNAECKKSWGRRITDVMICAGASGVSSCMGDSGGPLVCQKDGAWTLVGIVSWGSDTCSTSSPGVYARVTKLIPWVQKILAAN

SMILES	Tryptase at 100 μM % [1] [%]	Thrombin at 100 μM % [2] [%]	Chymotrypsin at 100 μM % [3] [%]	IC50 ([4]; Cathepsin G IC50) [µM]	Cytotoxicity LC50/GI50 Hela cells (HELA cells (Acc57)) [µM]	Hemolysis at 100 μM % [5] [%]	Chymase at 100 μM % (Chymase, from human skin) [%]	Trypsin at 100 μM % [6] [%]	IC50 ([7]; Elastase IC50) [µM]	FXa at 100 μM % [8] [%]	Urokinase at 100 μM % [9] [%]	IC50 ([4]; read-out: Cathepsin G IC50) [µM]	IC50 ([7]; read-out: Elastase IC50) [µM]
CCCC[C@@H]1NC(=O)[C@@H]2CCCN2C(=O)[C@H]2CCCN2C(=O)[C@H](Cc2ccc(O)cc2)NC(=O)[C@@H]2CSSC[C@H](NC1=O)C(=O)N[C@@H]([C@@H](C)O)C(=O)N[C@@H](CCCCN)C(=O)N[C@@H](CO)C(=O)N[C@@H](CC(=O)O)C(=O)N1CCC[C@H]1C(=O)N1CCC[C@H]1C(=O)N[C@@H]([C@@H](C)CC)C(=O)N2 [Ex. 44] (HELM PEPTIDE1{[Nle].C.T.K.S.D.P.P.I.C.Y.[dP].P}$PEPTIDE1,PEPTIDE1,2:R3-10:R3|PEPTIDE1,PEPTIDE1,1:R1-13:R2$$$V2.0)	50	9	24	0.031	67	0.1	3	100	> 10	9	14		
CC[C@H](C)[C@@H]1NC(=O)[C@@H]2CCCN2C(=O)[C@@H]2CCCN2C(=O)[C@H](CC(=O)O)NC(=O)[C@H](CO)NC(=O)[C@H](CCCCN)NC(=O)[C@H]([C@@H](C)O)NC(=O)[C@@H]2CSSC[C@H](NC1=O)C(=O)N[C@@H](CC(N)=O)C(=O)N1CCC[C@@H]1C(=O)N1CCC[C@H]1C(=O)N[C@@H](Cc1ccccc1)C(=O)N2 [Ex. 3] (HELM PEPTIDE1{F.C.T.K.S.D.P.P.I.C.N.[dP].P}$PEPTIDE1,PEPTIDE1,2:R3-10:R3|PEPTIDE1,PEPTIDE1,1:R1-13:R2$$$V2.0)	68	0	0	0.051	100	0	1	92	> 100	4	4		
CC[C@H](C)[C@@H]1NC(=O)[C@@H]2CCCN2C(=O)[C@@H]2CCCN2C(=O)[C@H](CC(=O)O)NC(=O)[C@H](CO)NC(=O)[C@H](CCCCN)NC(=O)[C@H]([C@@H](C)O)NC(=O)[C@@H]2CSSC[C@H](NC1=O)C(=O)N[C@@H](Cc1ccc(O)cc1)C(=O)N1CCC[C@@H]1C(=O)N1CCC[C@H]1C(=O)N[C@@H](C1CCCCC1)C(=O)N2 [Ex. 40] (HELM PEPTIDE1{[O=C([C@@H](N[*:1])C1CCCCC1)[*:2]].C.T.K.S.D.P.P.I.C.Y.[dP].P}$PEPTIDE1,PEPTIDE1,2:R3-10:R3|PEPTIDE1,PEPTIDE1,1:R1-13:R2$$$V2.0)	33	1	19	0.025	97	0.1	8	94	> 44.9	3	10		
CC[C@H](C)[C@@H]1NC(=O)[C@@H]2CCCN2C(=O)[C@@H]2CCCN2C(=O)[C@H](CC(=O)O)NC(=O)[C@H](CO)NC(=O)[C@H](CCCCN)NC(=O)[C@H]([C@@H](C)O)NC(=O)[C@@H]2CSSC[C@H](NC1=O)C(=O)N[C@@H]([C@@H](C)O)C(=O)N1CCC[C@@H]1C(=O)N1CCC[C@H]1C(=O)N[C@@H](C1CCCCC1)C(=O)N2 [Ex. 38] (HELM PEPTIDE1{[O=C([C@@H](N[*:1])C1CCCCC1)[*:2]].C.T.K.S.D.P.P.I.C.T.[dP].P}$PEPTIDE1,PEPTIDE1,2:R3-10:R3|PEPTIDE1,PEPTIDE1,1:R1-13:R2$$$V2.0)	11	0	4	0.031	100	0	1	96	> 100	0	1		
C[C@@H](O)[C@@H]1NC(=O)[C@@H]2CSSC[C@H](NC(=O)[C@H](CC3CCCCC3)NC(=O)[C@@H]3CCCN3C(=O)[C@@H]3CCCN3C(=O)[C@H](CC(=O)O)NC(=O)[C@H](CO)NC(=O)[C@H](CCCCN)NC1=O)C(=O)N[C@@H](CO)C(=O)N1CCC[C@@H]1C(=O)N1CCC[C@H]1C(=O)N[C@@H](Cc1ccccc1)C(=O)N2 [Ex. 16] (HELM PEPTIDE1{F.C.T.K.S.D.P.P.[Cha].C.S.[dP].P}$PEPTIDE1,PEPTIDE1,2:R3-10:R3|PEPTIDE1,PEPTIDE1,1:R1-13:R2$$$V2.0)			17.9	0.066	94	0.1	12.9	90.0	> 100		3.2		
CCCC[C@@H]1NC(=O)[C@H]([C@@H](C)O)NC(=O)[C@@H]2CSSC[C@H](NC(=O)[C@H]([C@@H](C)CC)NC(=O)[C@@H]3CCCN3C(=O)[C@@H]3CCCN3C(=O)[C@H](CC(=O)O)NC(=O)[C@H](CO)NC1=O)C(=O)N[C@@H](CCCNC(=N)N)C(=O)N1CCC[C@@H]1C(=O)N1CCC[C@H]1C(=O)N[C@@H]([C@@H](C)CC)C(=O)N2 [Ex. 59] (HELM PEPTIDE1{I.C.T.[Nle].S.D.P.P.I.C.R.[dP].P}$PEPTIDE1,PEPTIDE1,2:R3-10:R3|PEPTIDE1,PEPTIDE1,1:R1-13:R2$$$V2.0)	3.8		0		8	0	98.8	84			5.7	0.055	> 100
CC[C@H](C)[C@@H]1NC(=O)[C@@H]2CCCN2C(=O)[C@H]2CCCN2C(=O)[C@H](CCCNC(=N)N)NC(=O)[C@@H]2CSSC[C@H](NC1=O)C(=O)N[C@@H]([C@@H](C)O)C(=O)N[C@@H](CCCCN)C(=O)N[C@@H](CO)C(=O)N[C@@H](CC(=O)O)C(=O)N1CCC[C@H]1C(=O)N1CCC[C@H]1C(=O)N[C@@H](CC1CCCCC1)C(=O)N2 [Ex. 20] (HELM PEPTIDE1{I.C.T.K.S.D.P.P.[Cha].C.R.[dP].P}$PEPTIDE1,PEPTIDE1,2:R3-10:R3|PEPTIDE1,PEPTIDE1,1:R1-13:R2$$$V2.0)		28	0	0.048	100	0	44.1	97.0	> 100	25	6.7		
CC[C@H](C)[C@@H]1NC(=O)[C@@H]2CCCN2C(=O)[C@H]2CCCN2C(=O)[C@H](CCCNC(=N)N)NC(=O)[C@@H]2CSSC[C@H](NC1=O)C(=O)N[C@@H]([C@@H](C)O)C(=O)N[C@@H](CCCCN)C(=O)N[C@@H](CO)C(=O)N[C@@H](CC(=O)O)C(=O)N1CCC[C@H]1C(=O)N1CCC[C@H]1C(=O)N[C@@H](CC1CCCCC1)C(=O)N2 [Ex. 58] (HELM PEPTIDE1{I.C.T.K.S.D.P.P.[Cha].C.R.[dP].P}$PEPTIDE1,PEPTIDE1,2:R3-10:R3|PEPTIDE1,PEPTIDE1,1:R1-13:R2$$$V2.0)		28	0	0.0475	100	0	44.1	97		25	6.7		> 100

From patent US8658604B2, “Template-fixed beta-hairpin peptidomimetics with protease inhibitory activity” (Polyphor Ltd, priority 2005, dated 2014)
